# According to PubChem BioAssay (NCI):
#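 Tested at 5 concentrations; 48 h exposure; 96-well plates; endpoints linearly interpolated, else capped at highest concentration. GI50 marks 50% less growth. TGI denotes the concentration required for complete inhibition of growth.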
# Legend:
# Assay in all cases: NCI anticancer screen, dose series, 48 h
# [1] = tested on: 786-0 renal
# [2] = tested on: A498 renal
# [3] = tested on: A549 NSCLC
# [4] = tested on: ACHN renal
# [5] = tested on: BT-549 breast
# [6] = tested on: CAKI-1 renal
# [7] = tested on: CCRF-CEM leukemia
# [8] = tested on: COLO 205 colon
# [9] = tested on: DU-145 prostate
# [10] = tested on: EKVX NSCLC
# [11] = tested on: HCC-2998 colon
# [12] = tested on: HCT-116 colon
# [13] = tested on: HCT-15 colon
# [14] = tested on: HL-60(TB) leukemia
# [15] = tested on: HOP-62 NSCLC
# [16] = tested on: HOP-92 NSCLC
# [17] = tested on: HS 578T breast
# [18] = tested on: IGROV1 ovarian
# [19] = tested on: K-562 leukemia
# [20] = tested on: KM12 colon
# [21] = tested on: LOX IMVI melanoma
# [22] = tested on: M14 melanoma
# [23] = tested on: MALME-3M melanoma
# [24] = tested on: MCF7 breast
# [25] = tested on: MDA-MB-231 breast
# [26] = tested on: MDA-MB-435
# [27] = tested on: MDA-MB-468 breast
# [28] = tested on: MOLT-4 leukemia
# [29] = tested on: NCI-H226 lung
# [30] = tested on: NCI-H23 lung
# [31] = tested on: NCI-H522 lung
# [32] = tested on: NCI/ADR-RES ovarian
# [33] = tested on: OVCAR-3 ovarian
# [34] = tested on: OVCAR-8 ovarian
# [35] = tested on: PC-3 prostate
# [36] = tested on: RPMI-8226 leukemia
# [37] = tested on: RXF 393 renal
# [38] = tested on: SF-268 CNS
# [39] = tested on: SF-295 CNS
# [40] = tested on: SF-539 CNS
# [41] = tested on: SK-MEL-2 melanoma
# [42] = tested on: SK-MEL-28 melanoma
# [43] = tested on: SK-MEL-5 melanoma
# [44] = tested on: SK-OV-3 ovarian
# [45] = tested on: SN12C renal
# [46] = tested on: SNB-19 CNS
# [47] = tested on: SNB-75 CNS
# [48] = tested on: SR leukemia
# [49] = tested on: SW-620 colon
# [50] = tested on: T-47D breast
# [51] = tested on: TK-10 renal
# [52] = tested on: U251 CNS
# [53] = tested on: UACC-257 melanoma
# [54] = tested on: UACC-62 melanoma
# [55] = tested on: UO-31 renal
smiles,measurement,setting,value
Cc1noc2c(Cc3ccccc3)nn(CC(=O)N/N=C/c3ccc(Br)cc3)c(=O)c12,GI50,[1],1.89 µM
same,TGI,[1],4.17 µM
same,GI50,[2],1.73 µM
same,TGI,[2],3.34 µM
same,GI50,[3],6.34 µM
same,TGI,[3],> 100 µM
same,GI50,[4],2.71 µM
same,TGI,[4],6.91 µM
same,GI50,[5],17.7 µM
same,TGI,[5],49.4 µM
same,GI50,[6],5.6 µM
same,TGI,[6],25.2 µM
same,GI50,[7],30.5 µM
same,TGI,[7],> 100 µM
same,GI50,[8],7.46 µM
same,TGI,[8],> 100 µM
same,GI50,[9],76.2 µM
same,TGI,[9],> 100 µM
same,GI50,[10],31.3 µM
same,TGI,[10],> 100 µM
same,GI50,[11],> 100 µM
same,TGI,[11],> 100 µM
same,GI50,[12],3.31 µM
same,TGI,[12],17.7 µM
same,GI50,[13],> 100 µM
same,TGI,[13],> 100 µM
same,GI50,[14],> 100 µM
same,TGI,[14],> 100 µM
same,GI50,[15],3.37 µM
same,TGI,[15],13.1 µM
same,GI50,[16],4.3 µM
same,TGI,[16],21.5 µM
same,GI50,[17],3.06 µM
same,TGI,[17],17.7 µM
same,GI50,[18],13.5 µM
same,TGI,[18],38.7 µM
same,GI50,[19],25.7 µM
same,TGI,[19],> 100 µM
same,GI50,[20],> 100 µM
same,TGI,[20],> 100 µM
same,GI50,[21],8.98 µM
same,TGI,[21],> 100 µM
same,GI50,[22],29.8 µM
same,TGI,[22],> 100 µM
same,GI50,[23],14.5 µM
same,TGI,[23],44.3 µM
same,GI50,[24],77 µM
same,TGI,[24],> 100 µM
same,GI50,[25],3.34 µM
same,TGI,[25],12.7 µM
same,GI50,[26],> 100 µM
same,TGI,[26],> 100 µM
same,GI50,[27],9.61 µM
same,TGI,[27],35.9 µM
same,GI50,[28],50.6 µM
same,TGI,[28],> 100 µM
same,GI50,[29],2.33 µM
same,TGI,[29],6.11 µM
same,GI50,[30],9.2 µM
same,TGI,[30],41.3 µM
same,GI50,[31],12.9 µM
same,TGI,[31],88.1 µM
same,GI50,[32],5.64 µM
same,TGI,[32],> 100 µM
same,GI50,[33],3.36 µM
same,TGI,[33],> 100 µM
same,GI50,[34],4.62 µM
same,TGI,[34],> 100 µM
same,GI50,[35],29.8 µM
same,TGI,[35],> 100 µM
same,GI50,[36],29.1 µM
same,TGI,[36],> 100 µM
same,GI50,[37],3.04 µM
same,TGI,[37],12.6 µM
same,GI50,[38],22.8 µM
same,TGI,[38],> 100 µM
same,GI50,[39],5.79 µM
same,TGI,[39],21.1 µM
same,GI50,[40],15.8 µM
same,TGI,[40],36.8 µM
same,GI50,[41],17.5 µM
same,TGI,[41],33.7 µM
same,GI50,[42],> 100 µM
same,TGI,[42],> 100 µM
same,GI50,[43],28.4 µM
same,TGI,[43],> 100 µM
same,GI50,[44],3.19 µM
same,TGI,[44],9.49 µM
same,GI50,[45],3.27 µM
same,TGI,[45],> 100 µM
same,GI50,[46],13.3 µM
same,TGI,[46],30.2 µM
same,GI50,[47],1.74 µM
same,TGI,[47],6.96 µM
same,GI50,[48],14.7 µM
same,TGI,[48],> 100 µM
same,GI50,[49],> 100 µM
same,TGI,[49],> 100 µM
same,GI50,[50],1.96 µM
same,TGI,[50],5.46 µM
same,GI50,[51],3.01 µM
same,TGI,[51],9.71 µM
same,GI50,[52],3.48 µM
same,TGI,[52],30 µM
same,GI50,[53],> 100 µM
same,TGI,[53],> 100 µM
same,GI50,[54],13.2 µM
same,TGI,[54],49.6 µM
same,GI50,[55],1.91 µM
same,TGI,[55],4.67 µM
